Assay results taken from patent US20050197350A1, “Novel quinoline, tetrahydroquinazoline, and pyrimidine derivatives and methods of treatment related to the use thereof” (TAISHO PHARMACEUTICAL CO., LTD., priority 2003, published 2005).

The compounds below were run on MCH receptors (assay: MCH receptor activity class (method not given)). Details: class by percent of control at 10^−7 M or IC50.

| SMILES | class |
| --- | --- |
| COc1cc(OC)cc(C(=O)NC[C@H]2CC[C@@H](Nc3nc(C)cc(N(C)C)n3)CC2)c1 [compound 2711] | 2 (Class 2: The value of percent of control at 10^−7 M was from 40% to 60% or the value of IC′50 was from 50 nM to 200 nM.) |
| Cc1cnc(NC[C@H]2CC[C@@H](NC(=O)c3ccccc3)CC2)nc1N(C)C [compound 2712, N-[cis-4-({[4-(dimethylamino)-5-methylpyrimidin-2-yl]amino}methyl)cyclohexyl]benzamide] | 3 (Class 3 The value of percent of control at 10^−7 M was more than 60% or the value of IC50 was more than 200 nM.) |
| Cc1ccc(C(=O)N[C@H]2CC[C@@H](CNc3ncc(C)c(N(C)C)n3)CC2)cc1 [compound 2713] | 3 (Class 3 The value of percent of control at 10^−7 M was more than 60% or the value of IC50 was more than 200 nM.) |
| Cc1cnc(NC[C@H]2CC[C@@H](NC(=O)c3ccc(F)c(F)c3)CC2)nc1N(C)C [compound 2714] | 3 (Class 3 The value of percent of control at 10^−7 M was more than 60% or the value of IC50 was more than 200 nM.) |
| COc1ccc(C(=O)N[C@H]2CC[C@@H](CNc3ncc(C)c(N(C)C)n3)CC2)cc1 [compound 2715] | 3 (Class 3 The value of percent of control at 10^−7 M was more than 60% or the value of IC50 was more than 200 nM.) |
| COc1cc(OC)cc(C(=O)N[C@H]2CC[C@@H](CNc3ncc(C)c(N(C)C)n3)CC2)c1 [compound 2716, N-[cis-4-({[4-(dimethylamino)-5-methylpyrimidin-2-yl]amino}methyl)cyclohexyl]-3,5-dimethoxybenzamide] | 2 (Class 2: The value of percent of control at 10^−7 M was from 40% to 60% or the value of IC′50 was from 50 nM to 200 nM.) |
| Cc1ccc(C(=O)N[C@H]2CC[C@@H](CNc3ncc(C)c(N(C)C)n3)CC2)cc1F [compound 2717] | 3 (Class 3 The value of percent of control at 10^−7 M was more than 60% or the value of IC50 was more than 200 nM.) |
| Cc1cc(C(=O)N[C@H]2CC[C@@H](CNc3ncc(C)c(N(C)C)n3)CC2)ccc1F [compound 2718] | 2 (Class 2: The value of percent of control at 10^−7 M was from 40% to 60% or the value of IC′50 was from 50 nM to 200 nM.) |
| Cc1cnc(NC[C@H]2CC[C@@H](NC(=O)c3cccc(C(F)(F)F)c3)CC2)nc1N(C)C [compound 2719] | 3 (Class 3 The value of percent of control at 10^−7 M was more than 60% or the value of IC50 was more than 200 nM.) |
| Cc1cnc(NC[C@H]2CC[C@@H](NC(=O)c3ccc(C(F)(F)F)cc3)CC2)nc1N(C)C [compound 2720] | 3 (Class 3 The value of percent of control at 10^−7 M was more than 60% or the value of IC50 was more than 200 nM.) |
| Cc1cnc(NC[C@H]2CC[C@@H](NC(=O)c3cccc(OC(F)(F)F)c3)CC2)nc1N(C)C [compound 2721] | 3 (Class 3 The value of percent of control at 10^−7 M was more than 60% or the value of IC50 was more than 200 nM.) |
| Cc1cnc(NC[C@H]2CC[C@@H](NC(=O)c3ccc(OC(F)(F)F)cc3)CC2)nc1N(C)C [compound 2722] | 3 (Class 3 The value of percent of control at 10^−7 M was more than 60% or the value of IC50 was more than 200 nM.) |
| Cc1cnc(NC[C@H]2CC[C@@H](NC(=O)c3ccc(C#N)cc3)CC2)nc1N(C)C [compound 2723] | 3 (Class 3 The value of percent of control at 10^−7 M was more than 60% or the value of IC50 was more than 200 nM.) |
| Cc1cnc(NC[C@H]2CC[C@@H](NC(=O)c3ccc(Br)cc3)CC2)nc1N(C)C [compound 2724, 4-bromo-N-[cis-4-({[4-(dimethylamino)-5-methylpyrimidin-2-yl]amino}methyl)cyclohexyl]benzamide] | 3 (Class 3 The value of percent of control at 10^−7 M was more than 60% or the value of IC50 was more than 200 nM.) |
| Cc1cc(C(=O)N[C@H]2CC[C@@H](CNc3ncc(C)c(N(C)C)n3)CC2)ccc1Br [compound 2725, 4-bromo-N-[cis-4-({[4-(dimethylamino)-5-methylpyrimidin-2-yl]amino}methyl)cyclohexyl]-3-methylbenzamide] | 2 (Class 2: The value of percent of control at 10^−7 M was from 40% to 60% or the value of IC′50 was from 50 nM to 200 nM.) |
| Cc1cnc(NC[C@H]2CC[C@@H](NC(=O)c3ccc(F)c(Cl)c3)CC2)nc1N(C)C [compound 2726] | 2 (Class 2: The value of percent of control at 10^−7 M was from 40% to 60% or the value of IC′50 was from 50 nM to 200 nM.) |
| Cc1cnc(NC[C@H]2CC[C@@H](NC(=O)c3ccc(C(F)(F)F)c(F)c3)CC2)nc1N(C)C [compound 2727] | 3 (Class 3 The value of percent of control at 10^−7 M was more than 60% or the value of IC50 was more than 200 nM.) |
| Cc1cnc(NC[C@H]2CC[C@@H](NC(=O)c3cc(Cl)cc(Cl)c3)CC2)nc1N(C)C [compound 2728, 3,5-dichloro-N-[cis-4-({[4-(dimethylamino)-5-methylpyrimidin-2-yl]amino}methyl)cyclohexyl]benzamide] | 2 (Class 2: The value of percent of control at 10^−7 M was from 40% to 60% or the value of IC′50 was from 50 nM to 200 nM.) |

| SMILES | class |
| --- | --- |
| Cc1cnc(NC[C@H]2CC[C@@H](NC(=O)c3ccc(Cl)c(Cl)c3)CC2)nc1N(C)C [compound 2729, 3,4-dichloro-N-[cis-4-({[4-(dimethylamino)-5-methylpyrimidin-2-yl]amino}methyl)cyclohexyl]benzamide] | 3 (Class 3 The value of percent of control at 10^−7 M was more than 60% or the value of IC50 was more than 200 nM.) |
| Cc1cnc(NC[C@H]2CC[C@@H](NC(=O)c3ccc4c(c3)OC(F)(F)O4)CC2)nc1N(C)C [compound 2730] | 3 (Class 3 The value of percent of control at 10^−7 M was more than 60% or the value of IC50 was more than 200 nM.) |
| Cc1cnc(NC[C@H]2CC[C@@H](NC(=O)c3cc(C(F)(F)F)cc(C(F)(F)F)c3)CC2)nc1N(C)C [compound 2731, N-[cis-4-({[4-(dimethylamino)-5-methylpyrimidin-2-yl]amino}methyl)cyclohexyl]-3,5-bis(trifluoromethyl)benzamide] | 2 (Class 2: The value of percent of control at 10^−7 M was from 40% to 60% or the value of IC′50 was from 50 nM to 200 nM.) |
| Cc1cc(N(C)C)nc(NC[C@H]2CC[C@@H](NC(=O)c3ccccc3)CC2)n1 [compound 2732, N-[cis-4-({[4-(dimethylamino)-6-methylpyrimidin-2-yl]amino}methyl)cyclohexyl]benzamide] | 3 (Class 3 The value of percent of control at 10^−7 M was more than 60% or the value of IC50 was more than 200 nM.) |
| Cc1ccc(C(=O)N[C@H]2CC[C@@H](CNc3nc(C)cc(N(C)C)n3)CC2)cc1 [compound 2733] | 3 (Class 3 The value of percent of control at 10^−7 M was more than 60% or the value of IC50 was more than 200 nM.) |
| Cc1cc(N(C)C)nc(NC[C@H]2CC[C@@H](NC(=O)c3ccc(F)c(F)c3)CC2)n1 [compound 2734, N-[cis-4-({[4-(dimethylamino)-6-methylpyrimidin-2-yl]amino}methyl)cyclohexyl]-3,4-difluorobenzamide] | 3 (Class 3 The value of percent of control at 10^−7 M was more than 60% or the value of IC50 was more than 200 nM.) |
| COc1ccc(C(=O)N[C@H]2CC[C@@H](CNc3nc(C)cc(N(C)C)n3)CC2)cc1 [compound 2735] | 3 (Class 3 The value of percent of control at 10^−7 M was more than 60% or the value of IC50 was more than 200 nM.) |
| COc1cc(OC)cc(C(=O)N[C@H]2CC[C@@H](CNc3nc(C)cc(N(C)C)n3)CC2)c1 [compound 2736] | 3 (Class 3 The value of percent of control at 10^−7 M was more than 60% or the value of IC50 was more than 200 nM.) |
| Cc1cc(N(C)C)nc(NC[C@H]2CC[C@@H](NC(=O)c3ccc(C)c(F)c3)CC2)n1 [compound 2737] | 3 (Class 3 The value of percent of control at 10^−7 M was more than 60% or the value of IC50 was more than 200 nM.) |
| Cc1cc(N(C)C)nc(NC[C@H]2CC[C@@H](NC(=O)c3ccc(F)c(C)c3)CC2)n1 [compound 2738] | 3 (Class 3 The value of percent of control at 10^−7 M was more than 60% or the value of IC50 was more than 200 nM.) |
| Cc1cc(N(C)C)nc(NC[C@H]2CC[C@@H](NC(=O)c3cccc(C(F)(F)F)c3)CC2)n1 [compound 2739] | 3 (Class 3 The value of percent of control at 10^−7 M was more than 60% or the value of IC50 was more than 200 nM.) |
| Cc1cc(N(C)C)nc(NC[C@H]2CC[C@@H](NC(=O)c3ccc(C(F)(F)F)cc3)CC2)n1 [compound 2740] | 3 (Class 3 The value of percent of control at 10^−7 M was more than 60% or the value of IC50 was more than 200 nM.) |
| Cc1cc(N(C)C)nc(NC[C@H]2CC[C@@H](NC(=O)c3cccc(OC(F)(F)F)c3)CC2)n1 [compound 2741] | 3 (Class 3 The value of percent of control at 10^−7 M was more than 60% or the value of IC50 was more than 200 nM.) |
| Cc1cc(N(C)C)nc(NC[C@H]2CC[C@@H](NC(=O)c3ccc(OC(F)(F)F)cc3)CC2)n1 [compound 2742] | 3 (Class 3 The value of percent of control at 10^−7 M was more than 60% or the value of IC50 was more than 200 nM.) |
| Cc1cc(N(C)C)nc(NC[C@H]2CC[C@@H](NC(=O)c3ccc(C#N)cc3)CC2)n1 [compound 2743] | 3 (Class 3 The value of percent of control at 10^−7 M was more than 60% or the value of IC50 was more than 200 nM.) |
| Cc1cc(N(C)C)nc(NC[C@H]2CC[C@@H](NC(=O)c3ccc(Br)cc3)CC2)n1 [compound 2744, 4-bromo-N-[cis-4-({[4-(dimethylamino)-6-methylpyrimidin-2-yl]amino}methyl)cyclohexyl]benzamide] | 2 (Class 2: The value of percent of control at 10^−7 M was from 40% to 60% or the value of IC′50 was from 50 nM to 200 nM.) |
| Cc1cc(N(C)C)nc(NC[C@H]2CC[C@@H](NC(=O)c3ccc(Br)c(C)c3)CC2)n1 [compound 2745, 4-bromo-N-[cis-4-({[4-(dimethylamino)-6-methylpyrimidin-2-yl]amino}methyl)cyclohexyl]-3-methylbenzamide] | 2 (Class 2: The value of percent of control at 10^−7 M was from 40% to 60% or the value of IC′50 was from 50 nM to 200 nM.) |
| Cc1cc(N(C)C)nc(NC[C@H]2CC[C@@H](NC(=O)c3ccc(F)c(Cl)c3)CC2)n1 [compound 2746] | 3 (Class 3 The value of percent of control at 10^−7 M was more than 60% or the value of IC50 was more than 200 nM.) |
